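1) Cells in 96-well plates. 2) Compound, 48 h, 5 concentrations. 3) Linear interpolation between surrounding doses. 4) Unreached endpoint = highest concentration. At the TGI there is no net growth.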
What was measured:
Assay in all cases: growth of human tumour cells (NCI), 48 h
[1] = tested on: TK-10 renal
[2] = tested on: PC-3 prostate
[3] = tested on: DU-145 prostate
[4] = tested on: UACC-257 melanoma
[5] = tested on: MALME-3M melanoma
[6] = tested on: MOLT-4 leukemia
[7] = tested on: ACHN renal
[8] = tested on: HCT-116 colon
[9] = tested on: HOP-62 NSCLC
[10] = tested on: EKVX NSCLC
[11] = tested on: RXF 393 renal
[12] = tested on: COLO 205 colon
[13] = tested on: SK-MEL-2 melanoma
[14] = tested on: SNB-75 CNS
[15] = tested on: KM12 colon
[16] = tested on: SF-295 CNS
[17] = tested on: SK-MEL-28 melanoma
[18] = tested on: MDA-MB-435
[19] = tested on: UACC-62 melanoma
[20] = tested on: 786-0 renal
[21] = tested on: SW-620 colon
[22] = tested on: SN12C renal
[23] = tested on: OVCAR-5 ovarian
[24] = tested on: SF-268 CNS
[25] = tested on: BT-549 breast
[26] = tested on: MCF7 breast
[27] = tested on: HS 578T breast
[28] = tested on: U251 CNS
[29] = tested on: OVCAR-3 ovarian
[30] = tested on: LOX IMVI melanoma
[31] = tested on: NCI-H460 lung
[32] = tested on: CAKI-1 renal
[33] = tested on: RPMI-8226 leukemia
[34] = tested on: NCI/ADR-RES ovarian
[35] = tested on: OVCAR-8 ovarian
[36] = tested on: NCI-H522 lung
[37] = tested on: HT29 colon
[38] = tested on: UO-31 renal
[39] = tested on: K-562 leukemia
[40] = tested on: NCI-H23 lung
[41] = tested on: T-47D breast
[42] = tested on: A498 renal
[43] = tested on: NCI-H226 lung
[44] = tested on: HCC-2998 colon
[45] = tested on: SNB-19 CNS
[46] = tested on: OVCAR-4 ovarian
[47] = tested on: HCT-15 colon
[48] = tested on: SK-MEL-5 melanoma
[49] = tested on: MDA-N
[50] = tested on: SR leukemia
[51] = tested on: HL-60(TB) leukemia
[52] = tested on: MDA-MB-231 breast
[53] = tested on: IGROV1 ovarian
[54] = tested on: CCRF-CEM leukemia
[55] = tested on: M14 melanoma
[56] = tested on: SK-OV-3 ovarian
[57] = tested on: A549 NSCLC
[58] = tested on: HOP-92 NSCLC

## S=c1nc2sc3c(c2c(Nc2ccccc2)[nH]1)CCCC3
[1]
  TGI: > 100 µM
[2]
  TGI: > 100 µM
[3]
  TGI: > 100 µM
[4]
  TGI: > 100 µM
[5]
  TGI: > 100 µM
[6]
  TGI: > 100 µM
[7]
  TGI: > 100 µM
[8]
  TGI: > 100 µM
[9]
  TGI: > 100 µM
[10]
  TGI: > 100 µM
[11]
  TGI: > 100 µM
[12]
  TGI: > 100 µM
[13]
  TGI: > 100 µM
[14]
  TGI: > 100 µM
[15]
  TGI: > 100 µM
[16]
  TGI: > 100 µM
[17]
  TGI: > 100 µM
[18]
  TGI: > 100 µM
[19]
  TGI: > 100 µM
[20]
  TGI: > 100 µM
[21]
  TGI: > 100 µM
[22]
  TGI: > 100 µM
[23]
  TGI: > 100 µM
[24]
  TGI: > 100 µM
[25]
  TGI: > 100 µM
[26]
  TGI: > 100 µM
[27]
  TGI: > 100 µM
[28]
  TGI: > 100 µM
[29]
  TGI: > 100 µM
[30]
  TGI: > 100 µM
[31]
  TGI: > 100 µM
[32]
  TGI: > 100 µM
[33]
  TGI: > 100 µM
[34]
  TGI: > 100 µM
[35]
  TGI: > 100 µM
[36]
  TGI: > 100 µM
[37]
  TGI: > 100 µM
[38]
  TGI: > 100 µM
[39]
  TGI: > 100 µM
[40]
  TGI: > 100 µM
[41]
  TGI: > 100 µM
[42]
  TGI: > 100 µM
[43]
  TGI: > 100 µM
[44]
  TGI: > 100 µM
[45]
  TGI: > 100 µM
[46]
  TGI: > 100 µM
[47]
  TGI: > 100 µM
[48]
  TGI: > 100 µM
[49]
  TGI: > 100 µM
[50]
  TGI: > 100 µM
[51]
  TGI: > 100 µM
[52]
  TGI: > 100 µM
[53]
  TGI: > 100 µM

## CN(C(=O)Nc1ccc(Cl)c(Cl)c1)C1CCCC[C@@H]1N1CCCC1 (some centres undefined)
[1]
  TGI: > 100 µM
[2]
  TGI: > 100 µM
[3]
  TGI: > 100 µM
[4]
  TGI: 39.4 µM
[5]
  TGI: 37.8 µM
[6]
  TGI: 96.8 µM
[7]
  TGI: > 100 µM
[8]
  TGI: > 100 µM
[9]
  TGI: > 100 µM
[54]
  TGI: > 100 µM
[10]
  TGI: > 100 µM
[11]
  TGI: > 100 µM
[55]
  TGI: 36.1 µM
[12]
  TGI: 35.7 µM
[13]
  TGI: > 100 µM
[14]
  TGI: > 100 µM
[56]
  TGI: > 100 µM
[15]
  TGI: > 100 µM
[16]
  TGI: > 100 µM
[17]
  TGI: 47.6 µM
[18]
  TGI: > 100 µM
[19]
  TGI: 40.2 µM
[20]
  TGI: > 100 µM
[21]
  TGI: > 100 µM
[22]
  TGI: > 100 µM
[23]
  TGI: > 100 µM
[24]
  TGI: 94.7 µM
[25]
  TGI: > 100 µM
[57]
  TGI: > 100 µM
[26]
  TGI: 87.4 µM
[27]
  TGI: 73.9 µM
[28]
  TGI: > 100 µM
[29]
  TGI: > 100 µM
[30]
  TGI: > 100 µM
[31]
  TGI: > 100 µM
[32]
  TGI: > 100 µM
[58]
  TGI: > 100 µM
[33]
  TGI: 64.1 µM
[34]
  TGI: > 100 µM
[35]
  TGI: > 100 µM
[36]
  TGI: > 100 µM
[37]
  TGI: > 100 µM
[38]
  TGI: 84.2 µM
[39]
  TGI: > 100 µM
[40]
  TGI: > 100 µM
[41]
  TGI: > 100 µM
[42]
  TGI: 55.9 µM
[43]
  TGI: 39.5 µM
[45]
  TGI: > 100 µM
[46]
  TGI: > 100 µM
[47]
  TGI: > 100 µM
[48]
  TGI: 30.6 µM
[49]
  TGI: > 100 µM
[50]
  TGI: > 100 µM
[52]
  TGI: > 100 µM
[53]
  TGI: > 100 µM
